Key:
[1] = test system: pressor effects of angiotensin I; experiment: intravenous effectiveness: blood pressure response to angiotensin I in anesthetized rats; format: in vivo, rat; conditions: for Blood Pressure Response to 400 ng/kg of Angiotensin I: i.v. 1 μmole/kg, Ex. 245; for t1/2: recovery of one half of lost responsiveness to angiotensin I 400 ng/kg
Experimental: (§1) Anesthetized rats were prepared as described in Example 228. After the responsiveness of a given rat to angiotensin I was established, the named compound at 2 μmol/kg, in a volume of 15 μl of 0.01N sodium bicarbonate, was injected via a femoral vein. At timed intervals, the effects of angiotensin I, 400 ng/kg, on mean arterial blood pressure were tested. Results are shown below:
as §1, with “231.” for “228.”, “compound,” for “compound”
Anesthetized rats were prepared as described in Example 239. The animals were administered the named compound via a femoral vein in 15 μl of 0.01N sodium bicarbonate, after the control response to 400 ng/kg of angiotensin I was measured. […] The time required for recovery of one half of the lost responsiveness to angiotensin I, following injection of the named compound, was designated t1/2. […] Results are shown for two dose levels:
Anesthetized rats were prepared as described in Example 242. The named compound was administered intravenously via a femoral vein, at the stated dose, in 15 μl of 0.01N sodium bicarbonate. The response to intravenous administration was a rapid decrease in responsiveness to Angtiotensin I, 400 ng/kg, followed by a gradual recovery to the pretreatment level of responsiveness. The time required for recovery of one half the lost responsiveness to angiotensin I, following injection of the named compound, is designated t1/2. […] Results are shown for the three dose levels:
The intravenous effectiveness of the named compound was examined by following the procedure described in Example 244 except that 1 μmole/kg of the drug was given intravenously. The results are shown below:
The intravenous effectiveness of the named compound was examined by following the procedure described in Example 246 except that 1 μmole/Kg of the drug was given intravenously.

[2] = test system: pressor effects of angiotensin I; experiment: oral effectiveness: blood pressure response to angiotensin I in anesthetized rats; format: in vivo, rat
Experimental: Rats (210-290 g body weight) were fasted overnight and then anesthetized with intraperitoneal pentobarbital, 50-60 mg/kg. Tracheostomy was performed and the animals were ventilated mechanically. A cannula was inserted into a femoral vein for injection of angiotensin I or II, and a second cannula was inserted into a common carotid artery for direct measurement of arterial blood pressure. Heparin, 1,000 units, was injected via the femoral vein to prevent coagulation. Blood pressure was measured with a pressure transducer connected to a polygraph. The rats were injected with 80 ng of angiotensin I or angiotensin II in 20 μl of 0.9 g % NaCl; an amount of antiotensin I or II sufficient to raise mean arterial blood pressure by 27-40 mm Hg. After the responsiveness of a given rat to angiotensins I and II was established, compound (I), at 2 or 5 mg/kg (drug dissolved in 0.5 ml of H2 O plus 10 μl of 1N NaHCO3), was given via a stomach tube. At timed intervals, the effects of 80 ng of angiotensin I or angiotensin II on mean arterial blood pressure were tested.
Rats were prepared as described in Example 222. Compound (II) [N-benzoyl-L-phenylalanylthiopropanoyl)-L-proline] was given orally, via a stomach tube, at a dose of 12 mg/kg or 20 mg/kg. Compound (II) was dissolved in 0.5 ml of H2 O plus 10 μl of 1N NaHCO3. In all other respects, the experimental preparations were exactly as described in Example 222.
Rats (210-290 g body weight) were fasted overnight and then anesthetized with intraperitoneal pentobarbital, 50-60 mg/kg. Tracheostomy was performed and the animals were ventilated mechanically. A cannula was inserted into a femoral vein for injection of angiotensin I or II, and a second cannula was inserted into a common carotid artery for direct measurement of arterial blood pressure. Heparin, 1,000 units, was injected via the femoral vein to prevent coagulation. Blood pressure was measured with a pressure transducer connected to a polygraph. The rats were injected with 160 ng of angiotensin I or 80 ng of angiotensin II in 20 μl of 0.9 g % NaCl; an amount of angiotensin I or II sufficient to raise mean arterial blood pressure by 27-40 mm Hg. After the responsiveness of a given rat to angiotensins I and II was established, compound (B) at 10 mg (drug dissolved in 0.5 ml of H2 O plus 10 μl of 1N NaHCO3), was given via a stomach tube. At timed intervals, the effects of 160 ng of angiotensin I or 80 ng of angiotensin II on mean arterial blood pressure were tested. Results are shown below:
Rats (210-290 g body weight) were fasted overnight and then anesthetized with intraperitoneal pentobarbital, 50-60 mg/kg. Tracheostomy was performed and the animals were ventilated mechanically. A cannula was inserted into a femoral vein for injection of angiotensin I, and a second cannula was inserted into a common carotid artery for direct measurement of arterial blood pressure. Heparin, 1,000 units, was injected via the femoral vein to prevent coagulation. Blood pressure was measured with a pressure transducer connected to a polygraph. The rats were injected with 400 ng/kg of angiotensin I in 20 μl of 0.9 g % NaCl; an amount of angiotensin I sufficient to raise mean arterial blood pressure by 39 mm Hg. After the responsiveness of a given rat to angiotensin I was established, the named compound at 17 μmol/kg (drug dissolved in 0.15 ml of H2 O plus 10 μl of 1N NaHCO3), was given via a stomach tube. At timed intervals, the effects of 400 ng/kg of angiotensin I on mean arterial blood pressure were tested. Results are shown below:
Rats (190-290 g body weight) were fasted overnight and then anesthetized with intraperitoneal pentobarbital, 50-60 mg/kg. Tracheostomy was performed and the animals were ventilated mechanically. A cannula was inserted into a femoral vein for injection of angtiotensin I, and a second cannula was inserted into a common carotid artery for direct measurement of arterial blood pressure. […]

## C[C@H](CSC(=O)[C@@H](N)CCC(=O)O)C(=O)N1CCC[C@H]1C(=O)O [N-alpha-[3-(L-alpha-glutamylthio)-2-D-methyl-propanoyl]-L-proline]
[1]; 0.5 min
  Blood Pressure Response to 400 ng/kg of Angiotensin I: 13 % of Control
[1]; 3 min
  Blood Pressure Response to 400 ng/kg of Angiotensin I: 13 % of Control
[1]; 7 min
  Blood Pressure Response to 400 ng/kg of Angiotensin I: 13 % of Control
[1]; 11 min
  Blood Pressure Response to 400 ng/kg of Angiotensin I: 21 % of Control
[1]; 22 min
  Blood Pressure Response to 400 ng/kg of Angiotensin I: 21 % of Control
[1]; 28 min
  Blood Pressure Response to 400 ng/kg of Angiotensin I: 18 % of Control
[1]; 37 min
  Blood Pressure Response to 400 ng/kg of Angiotensin I: 29 % of Control
[1]; 47 min
  Blood Pressure Response to 400 ng/kg of Angiotensin I: 37 % of Control
[1]; 56 min
  Blood Pressure Response to 400 ng/kg of Angiotensin I: 39 % of Control
[1]; 82 min
  Blood Pressure Response to 400 ng/kg of Angiotensin I: 53 % of Control
[1]; 92 min
  Blood Pressure Response to 400 ng/kg of Angiotensin I: 71 % of Control
[2]; oral 10 μmol/kg, 9 min, Ex. 244
  Blood Pressure Response to 400 ng/kg of Angiotensin I: 66 % of Control
[2]; oral 10 μmol/kg, 18 min, Ex. 244
  Blood Pressure Response to 400 ng/kg of Angiotensin I: 39 % of Control
[2]; oral 10 μmol/kg, 26 min, Ex. 244
  Blood Pressure Response to 400 ng/kg of Angiotensin I: 39 % of Control
[2]; oral 10 μmol/kg, 33 min, Ex. 244
  Blood Pressure Response to 400 ng/kg of Angiotensin I: 26 % of Control
[2]; oral 10 μmol/kg, 39 min, Ex. 244
  Blood Pressure Response to 400 ng/kg of Angiotensin I: 18 % of Control
[2]; oral 10 μmol/kg, 45 min, Ex. 244
  Blood Pressure Response to 400 ng/kg of Angiotensin I: 18 % of Control
[2]; oral 10 μmol/kg, 53 min, Ex. 244
  Blood Pressure Response to 400 ng/kg of Angiotensin I: 13 % of Control
[2]; oral 10 μmol/kg, 64 min, Ex. 244
  Blood Pressure Response to 400 ng/kg of Angiotensin I: 13 % of Control
[2]; oral 10 μmol/kg, 77 min, Ex. 244
  Blood Pressure Response to 400 ng/kg of Angiotensin I: 26 % of Control
[2]; oral 10 μmol/kg, 89 min, Ex. 244
  Blood Pressure Response to 400 ng/kg of Angiotensin I: 26 % of Control
[2]; oral 10 μmol/kg, 111 min, Ex. 244
  Blood Pressure Response to 400 ng/kg of Angiotensin I: 24 % of Control
[2]; oral 10 μmol/kg, 125 min, Ex. 244
  Blood Pressure Response to 400 ng/kg of Angiotensin I: 26 % of Control

## C[C@H](CSC(=O)[C@H](Cc1c[nH]c2ccccc12)NC(=O)c1ccccc1)C(=O)N1CCC[C@H]1C(=O)O [N-alpha-[3-(N-alpha-benzoyl-L-tryptophylthio)-2-D-methylpropanoyl]-1-proline]
[1]; i.v. 0.193 μmol/kg
  t1/2: 11 min
[1]; i.v. 0.58 μmol/kg
  t1/2: 11 min
[1]; i.v. 1.93 μmol/kg
  t1/2: 15 min
[2]; oral 20 μmol/kg, 3 min, Ex. 242
  Blood Pressure Response to 400 ng/kg of Angiotensin I: 92 % of Control
[2]; oral 20 μmol/kg, 7 min, Ex. 242
  Blood Pressure Response to 400 ng/kg of Angiotensin I: 64 % of Control
[2]; oral 20 μmol/kg, 21 min, Ex. 242
  Blood Pressure Response to 400 ng/kg of Angiotensin I: 32 % of Control
[2]; oral 20 μmol/kg, 26 min, Ex. 242
  Blood Pressure Response to 400 ng/kg of Angiotensin I: 40 % of Control
[2]; oral 20 μmol/kg, 32 min, Ex. 242
  Blood Pressure Response to 400 ng/kg of Angiotensin I: 40 % of Control
[2]; oral 20 μmol/kg, 38 min, Ex. 242
  Blood Pressure Response to 400 ng/kg of Angiotensin I: 20 % of Control
[2]; oral 20 μmol/kg, 50 min, Ex. 242
  Blood Pressure Response to 400 ng/kg of Angiotensin I: 8 % of Control
[2]; oral 20 μmol/kg, 56 min, Ex. 242
  Blood Pressure Response to 400 ng/kg of Angiotensin I: 8 % of Control
[2]; oral 20 μmol/kg, 70 min, Ex. 242
  Blood Pressure Response to 400 ng/kg of Angiotensin I: 8 % of Control
[2]; oral 20 μmol/kg, 79 min, Ex. 242
  Blood Pressure Response to 400 ng/kg of Angiotensin I: 20 % of Control
[2]; oral 20 μmol/kg, 87 min, Ex. 242
  Blood Pressure Response to 400 ng/kg of Angiotensin I: 12 % of Control
[2]; oral 20 μmol/kg, 104 min, Ex. 242
  Blood Pressure Response to 400 ng/kg of Angiotensin I: 12 % of Control
[2]; oral 20 μmol/kg, 114 min, Ex. 242
  Blood Pressure Response to 400 ng/kg of Angiotensin I: 20 % of Control
[2]; oral 20 μmol/kg, 124 min, Ex. 242
  Blood Pressure Response to 400 ng/kg of Angiotensin I: 40 % of Control
[2]; oral 20 μmol/kg, 136 min, Ex. 242
  Blood Pressure Response to 400 ng/kg of Angiotensin I: 40 % of Control
[2]; oral 20 μmol/kg, 148 min, Ex. 242
  Blood Pressure Response to 400 ng/kg of Angiotensin I: 36 % of Control
[2]; oral 20 μmol/kg, 173 min, Ex. 242
  Blood Pressure Response to 400 ng/kg of Angiotensin I: 48 % of Control
[2]; oral 20 μmol/kg, 186 min, Ex. 242
  Blood Pressure Response to 400 ng/kg of Angiotensin I: 48 % of Control
[2]; oral 20 μmol/kg, 199 min, Ex. 242
  Blood Pressure Response to 400 ng/kg of Angiotensin I: 68 % of Control
[2]; oral 20 μmol/kg, 212 min, Ex. 242
  Blood Pressure Response to 400 ng/kg of Angiotensin I: 64 % of Control
[2]; oral 20 μmol/kg, 226 min, Ex. 242
  Blood Pressure Response to 400 ng/kg of Angiotensin I: 64 % of Control
[2]; oral 20 μmol/kg, 242 min, Ex. 242
  Blood Pressure Response to 400 ng/kg of Angiotensin I: 80 % of Control
[2]; oral 20 μmol/kg, 260 min, Ex. 242
  Blood Pressure Response to 400 ng/kg of Angiotensin I: 80 % of Control
[2]; oral 20 μmol/kg, 291 min, Ex. 242
  Blood Pressure Response to 400 ng/kg of Angiotensin I: 84 % of Control

Source: patent US4745124A, “Orally effective anti-hypertensive agents” (priority 1983, dated 1988)
